Source: patent US8871267B2, “Protein matrix materials, devices and methods of making and using thereof” (Gel-Del Technologies, Inc., priority 1998, dated 2014)

Tests used:
hepatocytes = assay: Biological activity of released hEGF in in-vitro cell culture; type: cell-based; conditions: subsequent studies using hepatocytes
xanthine oxidase = target: T1, xanthine oxidase (Bos taurus, UniProt P80457); assay: Enzyme activity of xanthine oxidase in the device piece (Sigma Enzymatic Assay of Superoxide Dismutase protocol); type: biochemical; conditions: 0.01 unit solution
T1 construct: purchased Sigma Chemical Company, St. Louis Mo
Method: A single cylinder piece, prepared as described above in Example 1, was added to a reaction chamber in a spectrophotometer containing xanthine, cytochrome C and other reactants according to previously described superoxide dismutase protocol (Sigma Quality Control Test Procedure EC 1.15.1.1 “Enzymatic Assay of Superoxide Dismutase”) enzyme activity of the enzyme xanthine oxidase in the piece was calculated at 0.0005 delta absorbance min (absorbance measured at 550 mm where no enzyme activity produces 0.00000 change in absorbance). In comparison to a 0.01 unit solution of xanthine oxidase, which produced 0.0250 delta absorbance/min, the activity of the xanthine oxidase in the piece equaled 1% of the control solution in a time period of only 3 minutes.

T1 sequence (P80457 2-1332 limits assumed): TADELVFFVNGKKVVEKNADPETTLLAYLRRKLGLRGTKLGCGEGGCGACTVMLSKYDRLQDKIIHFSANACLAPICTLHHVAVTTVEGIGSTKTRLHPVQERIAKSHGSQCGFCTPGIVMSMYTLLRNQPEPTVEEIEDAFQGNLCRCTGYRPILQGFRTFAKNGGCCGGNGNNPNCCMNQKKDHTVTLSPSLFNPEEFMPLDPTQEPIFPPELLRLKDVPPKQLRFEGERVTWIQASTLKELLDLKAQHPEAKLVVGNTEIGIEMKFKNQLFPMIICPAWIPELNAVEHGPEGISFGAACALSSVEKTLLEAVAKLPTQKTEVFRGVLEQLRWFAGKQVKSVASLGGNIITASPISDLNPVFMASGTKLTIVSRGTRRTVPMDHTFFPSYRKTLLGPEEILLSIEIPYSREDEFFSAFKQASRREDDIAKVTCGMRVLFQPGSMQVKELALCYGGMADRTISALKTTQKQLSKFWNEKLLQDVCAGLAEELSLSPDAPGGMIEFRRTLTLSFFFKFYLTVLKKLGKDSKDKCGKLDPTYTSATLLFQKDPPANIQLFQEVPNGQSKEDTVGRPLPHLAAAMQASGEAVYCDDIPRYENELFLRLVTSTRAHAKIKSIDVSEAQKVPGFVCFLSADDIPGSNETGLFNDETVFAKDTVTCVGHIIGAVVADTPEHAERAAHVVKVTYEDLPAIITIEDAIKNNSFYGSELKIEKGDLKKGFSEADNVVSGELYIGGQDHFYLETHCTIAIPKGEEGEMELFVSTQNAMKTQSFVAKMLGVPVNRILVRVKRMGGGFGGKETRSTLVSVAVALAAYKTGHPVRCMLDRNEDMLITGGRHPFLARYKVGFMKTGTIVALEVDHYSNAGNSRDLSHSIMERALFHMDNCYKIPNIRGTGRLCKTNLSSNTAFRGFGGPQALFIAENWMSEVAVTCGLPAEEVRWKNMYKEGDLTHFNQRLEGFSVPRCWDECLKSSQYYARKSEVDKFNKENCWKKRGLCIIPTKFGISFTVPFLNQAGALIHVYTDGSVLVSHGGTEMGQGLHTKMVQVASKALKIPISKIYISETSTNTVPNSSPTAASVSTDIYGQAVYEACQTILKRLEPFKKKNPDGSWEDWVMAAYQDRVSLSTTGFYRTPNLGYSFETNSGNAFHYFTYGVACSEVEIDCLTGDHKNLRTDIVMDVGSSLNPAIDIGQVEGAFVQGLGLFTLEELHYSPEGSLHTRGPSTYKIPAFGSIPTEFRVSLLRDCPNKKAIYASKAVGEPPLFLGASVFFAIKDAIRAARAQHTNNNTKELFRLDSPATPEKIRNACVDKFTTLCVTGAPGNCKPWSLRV

## hEGF: recombinant human epidermal growth factor (R&D System) (NSDSECPLSHDGYCLHDGVCMYIEALDKYACNCVVGYIGERCQYRDLKWWELR; not fully specified; Epidermal growth factor; UniProt P01133 971-1023, looked up)
hepatocytes
  biological activity of released hEGF: has biological activity

## xanthine oxidase
Xanthine oxidase
  rate produced by xanthine oxidase solution: 0.0250 delta absorbance/min
